Read-outs that look alike come from different tables or passages of the source.
How the values were obtained:
[1] = test system: Adult Sprague-Dawley rats; assay type: in vivo, rat
[2] = test system: contusion SCI; test: Tissue sparing following moderate contusion SCI, T10 lesion epicenter; assay type: in vivo; conditions: 5 mg/kg, 15 mins post-injury, 48 hours after SCI, p<0.05
Experimental: Bar graphs representing the extent of tissue sparing measured through cross-sections of the T10 segment injury epicenters 48 hours after a moderate (150 kydn) contusion SCI. […] Bars represent group means, SEM (n=5-6/group). Using an unpaired t-test, * indicates p<0.05 compared to vehicle-treated groups.

[3] = test system: rat brain; conditions: model of focal ischemia-reperfusion injury in the rat brain; cited from earlier work
[4] = test system: humans; conditions: cited from earlier work

Row | SMILES | tissue sparing compared to vehicle-treated animals ([1]; rat, in vivo) | cross-sectional area of tissue preservation at lesion epicenter ([2]; vs vehicle (DMSO)) | percentage of tissue sparing at the lesion epicenters ([2]; vs vehicle controls) | reduction of infarct volume [3] | weight loss as a function of dose ([4]; FIG. 1 left panel, regardless of diet or lifestyle) | metabolism as a function of dosage ([4]; FIG. 1 right panel) | tissue sparing compared to vehicle-treated animals ([1]; TBI rats, dosed 5 min post-injury (5 mg/kg 2,4-DNP, 2.5 mg/kg FCCP, 6.2 mg/kg), 15 days post-injury, p<0.01)
1 | O=[N+]([O-])c1ccc(O)c([N+](=O)[O-])c1 [2,4-DNP, 2,4-dinitrophenol] | significantly increased tissue sparing | significantly greater cross-sectional area of tissue preservation | significantly higher percentage of tissue sparing | approximately 40% | very linear increase in weigh loss | linear increase in metabolism | 
2 | N#CC(C#N)=NNc1ccc(OC(F)(F)F)cc1 [FCCP, carbonyl cyanide 4-trifluoromethoxy phenylhydrazone] |  |  |  |  |  |  | significantly increased tissue sparing

Reference: patent US8501239B2 (priority 2005, dated 2013)
